Assay results from US7163952B2, “Azole compound and medicinal use thereof” (Japan Tobacco Inc., priority 2001, dated 2007).

Row | melting point | Compound
1 | 236 to 238 °C | CC(C)N(c1ccc(C(=O)O)cc1)c1nc(-c2ccc(OCc3ccc(Cl)c(Cl)c3)cc2)cs1 [Example 96, 4-(N-(4-(4-(3,4-dichlorobenzyloxy)phenyl)-2-thiazolyl)-N-isopropylamino)benzoic acid]
2 | 230 °C (dec.) | CN(C)CCN(c1ccc(C(=O)O)cc1)c1nc(-c2ccc(OCc3ccc(Cl)c(Cl)c3)cc2)cs1 [Example 97, 4-(N-(4-(4-(3,4-dichlorobenzyloxy)phenyl)-2-thiazolyl)-N-(2-dimethylaminoethyl)amino)benzoic acid]
3 | 230 °C (dec.) | O=C(O)c1ccc(N(CCN2CCCCC2)c2nc(-c3ccc(OCc4ccc(Cl)c(Cl)c4)cc3)cs2)cc1 [Example 98, 4-(N-(4-(4-(3,4-dichlorobenzyloxy)phenyl)-2-thiazolyl)-N-(2-piperidinoethyl)amino)benzoic acid]
4 | 175 to 178 °C | COCCN(c1ccc(C(=O)O)cc1)c1nc(-c2ccc(OCc3ccc(Cl)c(Cl)c3)cc2)cs1 [Example 99, 4-(N-(4-(4-(3,4-dichlorobenzyloxy)phenyl)-2-thiazolyl)-N-(2-methoxyethyl)amino)benzoic acid]
5 | 222 to 224 °C | O=C(O)c1ccc(C2(c3nc(-c4ccc(OCc5ccc(C6CCCCC6)cc5)cc4)cs3)CCCCC2)cc1 [Example 100, 4-(1-(4-(4-(4-cyclohexylbenzyloxy)phenyl)-2-thiazolyl)cyclohexyl)benzoic acid]
6 | 230 °C (dec.) | O=C(O)c1ccc(C2(c3nc(-c4ccc(OCc5ccc(C6CCCCC6)cc5)cc4)cs3)CCOCC2)cc1 [Example 101, 4-(4-(4-(4-(4-cyclohexylbenzyloxy)phenyl)-2-thiazolyl)tetrahydropyran-4-yl)benzoic acid]
7 | 178 to 180 °C | CC(C)N(Cc1ccc(C(=O)O)cc1)c1nc(-c2ccc(NS(=O)(=O)c3ccc(C(C)(C)C)cc3)cc2)cs1 [Example 104, 4-((N-(4-(4-(4-tert-butylbenzenesulfonylamino)phenyl)-2-thiazolyl)-N-isopropylamino)methyl)benzoic acid]
8 | 193 to 195 °C | CC(C)N(Cc1ccc(C(=O)O)cc1)c1nc(-c2ccc(NS(=O)(=O)c3ccc(Cl)c(Cl)c3)cc2)cs1 [Example 105, 4-((N-(4-(4-(3,4-dichlorobenzenesulfonylamino)phenyl)-2-thiazolyl)-N-isopropylamino)methyl)benzoic acid]
9 | 132 to 134 °C | CC(C)N(Cc1ccc(C(=O)O)cc1)c1nc(-c2ccc(NS(=O)(=O)c3ccc(C(F)(F)F)cc3)cc2)cs1 [Example 106, 4-((N-isopropyl-N-(4-(4-(4-trifluoromethylbenzenesulfonylamino)phenyl)-2-thiazolyl)amino)methyl)benzoic acid]
10 | 144 to 146 °C | CC(C)N(Cc1ccc(C(=O)O)cc1)c1nc(-c2ccc(N(Cc3ccccc3)Cc3ccccc3)cc2)cs1 [Example 109, 4-((N-(4-(4-dibenzylaminophenyl)-2-thiazolyl)-N-isopropylamino)methyl)benzoic acid]
11 | 120 °C (dec.) | O=C(O)c1ccc(CN(CC2CCCCC2)c2nc(-c3ccc(N(Cc4ccc(Cl)c(Cl)c4)Cc4ccc(Cl)c(Cl)c4)cc3)cs2)cc1 [Example 117, 4-((N-(4-(4-(bis(3,4-dichlorobenzyl)amino)phenyl)-2-thiazolyl)-N-cyclohexylmethylamino)methyl)benzoic acid]
12 | 125 to 127 °C | CN(Cc1ccc(Cl)c(Cl)c1)c1ccc(-c2csc(N(Cc3ccc(C(=O)O)cc3)CC3CCCCC3)n2)cc1 [Example 118, 4-((N-cyclohexylmethyl-N-(4-(4-(N-(3,4-dichlorobenzyl)-N-methylamino)phenyl)-2-thiazolyl)amino)methyl)benzoic acid]
13 | 139 to 141 °C | C=CCN(Cc1ccc(C2CCCCC2)cc1)c1ccc(-c2csc(N(C)Cc3ccc(C(=O)O)cc3)n2)cc1 [Example 119, 4-((N-(4-(4-(N-allyl-N-(4-cyclohexylbenzyl)amino)phenyl)-2-thiazolyl)-N-methylamino)methyl)benzoic acid]
14 | 223 to 225 °C | CN(c1ccc(C(=O)O)cc1)c1nc(-c2ccc(NCc3ccc(Cl)c(Cl)c3)cc2)cs1 [Example 128, 4-(N-(4-(4-(3,4-dichlorobenzylamino)phenyl)-2-thiazolyl)-N-methylamino)benzoic acid]
15 | 187 to 189 °C | O=C(O)c1ccc(N(CC2CCCCC2)c2nc(-c3ccc(NCc4ccc(Cl)c(Cl)c4)cc3)cs2)cc1 [Example 129, 4-(N-cyclohexylmethyl-N-(4-(4-(3,4-dichlorobenzylamino)phenyl)-2-thiazolyl)amino)benzoic acid]
16 | 200 to 202 °C | CC(C)c1ccc(CNc2ccc(-c3csc(N(CC4CCCCC4)c4ccc(C(=O)O)cc4)n3)cc2)cc1 [Example 130, 4-(N-cyclohexylmethyl-N-(4-(4-(4-isopropylbenzylamino)phenyl)-2-thiazolyl)amino)benzoic acid]
17 | 167 to 169 °C | CC(C)Cc1ccc(CNc2ccc(-c3csc(N(CC4CCCCC4)c4ccc(C(=O)O)cc4)n3)cc2)cc1 [Example 131, 4-(N-cyclohexylmethyl-N-(4-(4-(4-isobutylbenzylamino)phenyl)-2-thiazolyl)amino)benzoic acid]

Row | melting point | Compound
18 | 185 to 189 °C | CN(Cc1ccc(C2CCCCC2)cc1)c1ccc(-c2csc(N(C)c3ccc(C(=O)O)cc3)n2)cc1 [Example 132, 4-(N-(4-(4-(N-(4-cyclohexylbenzyl)-N-methylamino)phenyl)-2-thiazolyl)-N-methylamino)benzoic acid]
19 | 230 °C (dec.) | CN(c1ccc(C(=O)O)cc1)c1nc(-c2ccc(NCc3ccc(C(F)(F)F)cc3)cc2)cs1 [Example 133, 4-(N-methyl-N-(4-(4-(4-trifluoromethylbenzylamino)phenyl)-2-thiazolyl)amino)benzoic acid]
20 | 199 to 203 °C | O=C(O)c1ccc(N(CC2CCCCC2)c2nc(-c3ccc(NCc4ccc(C(F)(F)F)cc4)cc3)cs2)cc1 [Example 134, 4-(N-cyclohexylmethyl-N-(4-(4-(4-trifluoromethylbenzylamino)phenyl)-2-thiazolyl)amino)benzoic acid]
21 | 218 to 220 °C | CN(Cc1ccc(C(F)(F)F)cc1)c1ccc(-c2csc(N(C)c3ccc(C(=O)O)cc3)n2)cc1 [Example 137, 4-(N-methyl-N-(4-(4-(N-methyl-N-(4-trifluoromethylbenzyl)amino)phenyl)-2-thiazolyl)amino)benzoic acid]
22 | 235 to 236 °C | O=C(O)c1ccc(Nc2nc(-c3cccc(OCc4ccc(C5CCCCC5)cc4)c3)cs2)cc1 [Example 138, 4-(4-(3-(4-cyclohexylbenzyloxy)phenyl)-2-thiazolylamino)benzoic acid]
23 | 250 °C (dec.) | CN(c1ccc(C(=O)O)cc1)c1nc(-c2cccc(OCc3ccc(C4CCCCC4)cc3)c2)cs1 [Example 139, 4-(N-(4-(3-(4-cyclohexylbenzyloxy)phenyl)-2-thiazolyl)-N-methylamino)benzoic acid]
24 | 179 to 180 °C | CCN(c1ccc(C(=O)O)cc1)c1nc(-c2cccc(OCc3ccc(C4CCCCC4)cc3)c2)cs1 [Example 140, 4-(N-(4-(3-(4-cyclohexylbenzyloxy)phenyl)-2-thiazolyl)-N-ethylamino)benzoic acid]
25 | 189 to 190 °C | CC(C)N(c1ccc(C(=O)O)cc1)c1nc(-c2cccc(OCc3ccc(C4CCCCC4)cc3)c2)cs1 [Example 141, 4-(N-(4-(3-(4-cyclohexylbenzyloxy)phenyl)-2-thiazolyl)-N-isopropylamino)benzoic acid]
26 | 195 to 197 °C | O=C(O)c1ccc(N(CC2CCCCC2)c2nc(-c3cccc(OCc4ccc(C5CCCCC5)cc4)c3)cs2)cc1 [Example 142, 4-(N-(4-(3-(4-cyclohexylbenzyloxy)phenyl)-2-thiazolyl)-N-cyclohexylmethylamino)benzoic acid]
27 | 228 to 230 °C | CC(C)N(Cc1ccc(C(=O)O)cc1)c1nc(-c2cccc(NC(=O)c3ccc(C4CCCCC4)cc3)c2)cs1 [Example 146, 4-((N-(4-(3-(4-cyclohexylbenzoylamino)phenyl)-2-thiazolyl)-N-isopropylamino)methyl)benzoic acid]
28 | 208 to 211 °C | O=C(O)c1ccc(Nc2nc(-c3cc(Cl)ccc3OCc3ccccc3)cs2)cc1 [Example 148, 4-(4-(2-benzyloxy-5-chlorophenyl)-2-thiazolylamino)benzoic acid]
29 | 152 to 154 °C | CC(C)(c1ccc(C(=O)O)cc1)c1nc(-c2cc(Cl)ccc2OCc2ccccc2)cs1 [Example 149, 4-(1-(4-(2-benzyloxy-5-chlorophenyl)-2-thiazolyl)-1-methylethyl)benzoic acid]
30 | 230 °C (dec.) | O=C(O)c1ccc(Nc2nc(-c3cc(Cl)ccc3OCc3ccccc3)cs2)c(OCCC2CCCCC2)c1 [Example 150, 4-(4-(2-benzyloxy-5-chlorophenyl)-2-thiazolylamino)-3-(2-cyclohexylethoxy)benzoic acid]
31 | 211 to 212 °C | CN(c1ccc(C(=O)O)cc1)c1nc(-c2cc(Cl)ccc2OCc2ccccc2)cs1 [Example 151, 4-(N-(4-(2-benzyloxy-5-chlorophenyl)-2-thiazolyl)-N-methylamino)benzoic acid]
32 | 160 to 163 °C | O=C(O)c1ccc(N(CCC2CCCCC2)c2nc(-c3cc(Cl)ccc3OCc3ccccc3)cs2)cc1 [Example 152, 4-(N-(4-(2-benzyloxy-5-chlorophenyl)-2-thiazolyl)-N-(2-cyclohexylethyl)amino)benzoic acid]
33 | 152 to 155 °C | O=C(O)c1ccc(N(CCOc2ccccc2)c2nc(-c3cc(Cl)ccc3OCc3ccccc3)cs2)cc1 [Example 153, 4-(N-(4-(2-benzyloxy-5-chlorophenyl)-2-thiazolyl)-N-(2-phenoxyethyl)amino)benzoic acid]
34 | 184 to 185 °C | COc1ccc(OCc2ccccc2)c(-c2csc(Nc3ccc(C(=O)O)cc3)n2)c1 [Example 154, 4-(4-(2-benzyloxy-5-methoxyphenyl)-2-thiazolylamino)benzoic acid]

Row | Compound | melting point
35 | CN(Cc1ccc(C(=O)[O-])cc1)c1nc(-c2ccc(OCc3ccc(C4CCCCC4)cc3)cc2)cs1.[Na+] [Example 120, sodium 4-((N-(4-(4-(4-cyclohexylbenzyloxy)phenyl)-2-thiazolyl)-N-methylamino)methyl)benzoate] | 250 °C (dec.)
